This is an account of results in ChEMBL document CHEMBL1154264, “Evaluation of the flavonoid oroxylin A as an inhibitor of P-glycoprotein-mediated cellular efflux” (J Nat Prod, 2009).

Activity calls are given as the source filed them. The rule behind the calls is not given here.

Data set [1] has as its system NCI/ADR-RES. Briefly: Potentiation of paclitaxel-induced cytotoxicity against P-gp expressing human NCI/ADR-RES cells assessed as reduction of paclitaxel CC50 at 10 uM after 3 days by MTT assay. The class given is functional. Background: Formazan colour is commonly taken as a measure of viable cells.
Data set [2] has as its target T1, ATP-dependent translocase ABCB1 (Homo sapiens, UniProt P08183). Briefly: Inhibition of P-glycoprotein-mediated drug efflux in human NCI/ADR-RES cells assessed as paclitaxel accumulation after 30 mins by HPLC. As to conditions: 0.5 h. Type of data set: cell-based.
For data set [3], the system named is NCI/ADR-RES. Briefly: Potentiation of vinblastine-induced cytotoxicity against P-gp expressing human NCI/ADR-RES cells assessed as reduction of vinblastine CC50 at 10 uM after 3 days by MTT assay. Type of data set: functional.
For data set [4], the target named is T1, ATP-dependent translocase ABCB1. Briefly: Inhibition of P-glycoprotein-mediated drug efflux in human NCI/ADR-RES cells assessed as calcein AM accumulation after 30 mins by fluorescence spectrophotometry. Type of data set: cell-based. As to conditions: 0.5 h.
Data set [5] has as its system NCI/ADR-RES. Briefly: Cytotoxicity against human NCI/ADR-RES cells at 10 uM after 3 days by MTT assay. The class given is functional, cell-based.

T1 sequence (P08183 whole entry): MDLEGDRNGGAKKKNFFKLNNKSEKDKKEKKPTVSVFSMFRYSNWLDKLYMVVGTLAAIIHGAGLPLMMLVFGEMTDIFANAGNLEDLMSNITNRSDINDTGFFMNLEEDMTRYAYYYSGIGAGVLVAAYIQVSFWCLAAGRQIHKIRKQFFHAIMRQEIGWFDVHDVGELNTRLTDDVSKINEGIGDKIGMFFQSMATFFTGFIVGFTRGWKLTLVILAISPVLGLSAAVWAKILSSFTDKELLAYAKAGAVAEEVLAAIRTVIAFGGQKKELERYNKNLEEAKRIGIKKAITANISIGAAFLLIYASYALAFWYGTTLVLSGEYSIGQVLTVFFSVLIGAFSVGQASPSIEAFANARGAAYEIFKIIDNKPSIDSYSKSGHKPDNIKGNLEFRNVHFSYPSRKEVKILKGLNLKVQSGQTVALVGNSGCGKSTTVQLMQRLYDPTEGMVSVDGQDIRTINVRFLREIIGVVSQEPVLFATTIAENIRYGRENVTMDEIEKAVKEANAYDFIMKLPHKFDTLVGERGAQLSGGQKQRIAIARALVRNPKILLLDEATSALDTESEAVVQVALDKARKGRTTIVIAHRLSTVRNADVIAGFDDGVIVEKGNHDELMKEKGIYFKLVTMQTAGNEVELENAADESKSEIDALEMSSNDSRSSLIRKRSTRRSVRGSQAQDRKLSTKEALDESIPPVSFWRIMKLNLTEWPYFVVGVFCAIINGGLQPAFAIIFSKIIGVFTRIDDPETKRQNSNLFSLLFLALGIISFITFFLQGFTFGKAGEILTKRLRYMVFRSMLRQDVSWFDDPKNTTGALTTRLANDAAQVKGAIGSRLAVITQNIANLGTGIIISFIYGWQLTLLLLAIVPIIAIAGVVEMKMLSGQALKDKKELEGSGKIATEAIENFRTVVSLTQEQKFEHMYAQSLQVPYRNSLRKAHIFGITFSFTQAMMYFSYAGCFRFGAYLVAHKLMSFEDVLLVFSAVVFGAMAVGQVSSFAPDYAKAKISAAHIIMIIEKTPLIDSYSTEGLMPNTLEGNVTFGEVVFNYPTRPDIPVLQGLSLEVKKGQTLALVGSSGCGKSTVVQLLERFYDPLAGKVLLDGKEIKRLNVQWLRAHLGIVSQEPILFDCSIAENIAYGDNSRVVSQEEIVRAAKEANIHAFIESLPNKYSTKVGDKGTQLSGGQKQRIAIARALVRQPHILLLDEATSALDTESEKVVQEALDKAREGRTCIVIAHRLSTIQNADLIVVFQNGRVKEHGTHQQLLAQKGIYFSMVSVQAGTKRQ

`COc1c(O)cc2oc(-c3ccccc3)cc(=O)c2c1O` [OROXYLIN A]: the “fold change (FC)” value in data set [1] and in data set [3] was 5 in each case. Further, the “inhibition (INH)” value in data set [2] and in data set [4] was “Dose-dependent effect” in each case. Also, the result in data set [5] was inactive.
